Target: furin (Homo sapiens, UniProt P09958)
Assay: fluorogenic furin protease assay (BPS Bioscience kit), IC50 in triplicate
Type: biochemical
Settings: read-out: Biological Activity ^2 [IC50; μM] ^3 or % Inhibition ^4

Sequence of furin (P09958 108-794): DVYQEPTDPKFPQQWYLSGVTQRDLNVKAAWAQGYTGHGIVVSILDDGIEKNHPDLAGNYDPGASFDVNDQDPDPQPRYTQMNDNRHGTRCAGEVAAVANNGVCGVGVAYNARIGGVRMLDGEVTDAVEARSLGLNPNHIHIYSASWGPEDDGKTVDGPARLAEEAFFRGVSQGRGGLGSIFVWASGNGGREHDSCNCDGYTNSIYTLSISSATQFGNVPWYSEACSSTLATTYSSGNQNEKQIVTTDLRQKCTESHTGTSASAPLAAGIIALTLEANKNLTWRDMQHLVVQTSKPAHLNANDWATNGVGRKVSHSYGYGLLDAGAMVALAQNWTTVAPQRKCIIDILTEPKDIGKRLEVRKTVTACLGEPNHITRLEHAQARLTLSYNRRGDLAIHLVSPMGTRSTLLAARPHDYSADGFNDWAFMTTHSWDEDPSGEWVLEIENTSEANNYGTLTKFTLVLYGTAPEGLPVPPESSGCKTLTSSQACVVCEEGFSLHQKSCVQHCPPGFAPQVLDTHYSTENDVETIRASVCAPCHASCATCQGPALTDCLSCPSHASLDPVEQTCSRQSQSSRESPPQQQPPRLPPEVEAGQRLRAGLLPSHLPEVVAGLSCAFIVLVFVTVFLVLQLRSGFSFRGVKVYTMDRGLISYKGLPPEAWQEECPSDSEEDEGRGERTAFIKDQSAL

IC50: 17.6 ± 2.29 µM
Structure (SMILES): COc1ccccc1/C=C1/SC(=S)N(CCC(=O)Nc2ccc(S(=O)(=O)Nc3nccs3)cc2)C1=O [compound 4, N-[4-(1,3-thiazol-2-ylaminosulfonyl)phenyl]-3-{(E)-5-[(2-methoxyphenyl)methylene]-4-oxo-2-thioxo-1,3-thiazolidin-3-yl}propionamide]

Reference: PMC11859198, “Identification of Furin Protease Small-Molecule Inhibitor with a 1,3-Thiazol-2-ylaminosulfonyl Scaffold” (Pharmaceuticals, 2025)
